Where two headings read alike, the source gives them in different places.
What was measured:
[1] = Experimental lipophilicity by RP-TLC (RM0, logPTLC, hydrophobic index); conditions: for RM0 (chromatographic parameter of lipophilicity): RP-TLC, acetone / TRIS 0.2 M pH 7.4, extrapolated to zero acetone; for logPTLC (experimental lipophilicity) / chromatographic logP: from RM0 by calibration curve Equation (4); for hydrophobic index (φ0): φ0 = −RM0/b; for chromatographic logP: logPTLC (experimental lipophilicity)
[2] = physchem
[3] = design: method as in PMID 9879505, doi:10.1021/ja00193a003; conditions: literature values of standard substances ref 52, 53; cited from earlier work
[4] = pH 7.4

SMILES	RM0 (chromatographic parameter of lipophilicity) [1]	logPTLC (experimental lipophilicity) [1]	hydrophobic index (φ0) [1]	chromatographic logP [1]	chromatographic logP [2]	logPlit [3]	RM0 (chromatographic parameter of lipophilicity) [4]
C=C(C)[C@@H]1CC[C@]2(COC(=O)c3cn(CCCOC4=C(Cl)C(=O)c5ccc(C)nc5C4=O)nn3)CC[C@]3(C)C(CCC4[C@@]5(C)CC[C@H](OC(=O)CC)C(C)(C)C5CC[C@]43C)C12 (stereo partly shown) [Compound 12]	4.39	5.56	88.32	–	–	–	–
C=C(C)[C@@H]1CC[C@]2(COC(=O)c3cn(CCCO)nn3)CC[C@]3(C)C(CCC4[C@@]5(C)CCC(=O)C(C)(C)C5CC[C@]43C)C12 (stereo partly shown) [Compound 18]	4.54	–	83.67	5.73	–	–	–
C=C(C)[C@@H]1CC[C@]2(COC(=O)c3cn(CCCO)nn3)CC[C@]3(C)C(CCC4[C@@]5(C)CC[C@H](OC(C)=O)C(C)(C)C5CC[C@]43C)C12 (stereo partly shown) [Compound 19]	5.07	–	86.06	6.33	–	–	–
C=C(C)[C@@H]1CC[C@]2(COC(=O)c3cn(CCCOC4=C(Cl)C(=O)c5cccnc5C4=O)nn3)CC[C@]3(C)C(CCC4[C@@]5(C)CC[C@H](O)C(C)(C)C5CC[C@]43C)C12 (stereo partly shown) [Compound 1]	3.51	–	82.40	–	–	–	–
C=C(C)[C@@H]1CC[C@]2(COC(=O)c3cn(CCCOC4=C(Cl)C(=O)c5ccccc5C4=O)nn3)CC[C@]3(C)C(CCC4[C@@]5(C)CC[C@H](OC(=O)CC)C(C)(C)C5CC[C@]43C)C12 (stereo partly shown) [Compound 16]	4.58	–	86.18	5.77	–	–	–
C=C(C)[C@@H]1CC[C@]2(COC(=O)c3cn(CCCOC4=C(Cl)C(=O)c5ccncc5C4=O)nn3)CC[C@]3(C)C(CCC4[C@@]5(C)CC[C@H](O)C(C)(C)C5CC[C@]43C)C12 (stereo partly shown) [Compound 5]	3.56	–	79.81	–	–	–	–
C=C(C)[C@@H]1CC[C@]2(COC(=O)c3cn(CCCOC4=C(Cl)C(=O)c5ccc(C)nc5C4=O)nn3)CC[C@]3(C)C(CCC4[C@@]5(C)CC[C@H](OC(C)=O)C(C)(C)C5CC[C@]43C)C12 (stereo partly shown) [Compound 11]	4.12	5.26	85.94	–	–	–	–
C[C@]12C=CC(=O)C=C1CC[C@@H]1[C@@H]2C(=O)C[C@@]2(C)[C@H]1CC[C@]2(O)C(=O)CO [Prednisone, prednisone, reference compound]	0.73	–	–	–	1.39	–	–
C=C(C)[C@@H]1CC[C@]2(COC(=O)c3cn(CCCOC4=C(Cl)C(=O)c5ccccc5C4=O)nn3)CC[C@]3(C)C(CCC4[C@@]5(C)CC[C@H](O)C(C)(C)C5CC[C@]43C)C12 (stereo partly shown) [Compound 13]	3.78	4.87	87.13	–	–	–	–
C=C(C)[C@@H]1CC[C@]2(COC(=O)c3cn(CCCOC4=C(Cl)C(=O)c5cccnc5C4=O)nn3)CC[C@]3(C)C(CCC4[C@@]5(C)CC[C@H](OC(=O)CC)C(C)(C)C5CC[C@]43C)C12 (stereo partly shown) [Compound 4]	4.08	–	87.00	5.21	–	–	–
c1ccc2cc3ccccc3cc2c1 [Anthracene, anthracene, reference compound]	3.48	–	–	4.52	–	–	–
Clc1ccc(C(c2ccc(Cl)cc2)C(Cl)(Cl)Cl)cc1 [DDT, dichlorodiphenyltrichloroethane, reference compound]	4.87	6.17	–	–	–	6.01	–
C=C(C)[C@@H]1CC[C@]2(COC(=O)c3cn(CCCO)nn3)CC[C@]3(C)C(CCC4[C@@]5(C)CC[C@H](OC(=O)CC)C(C)(C)C5CC[C@]43C)C12 (stereo partly shown) [Compound 20]	5.26	–	87.13	6.55	–	–	–
C=C(C)[C@@H]1CC[C@]2(COC(=O)c3cn(CCCOC4=C(Cl)C(=O)c5cccnc5C4=O)nn3)CC[C@]3(C)C(CCC4[C@@]5(C)CC[C@H](OC(C)=O)C(C)(C)C5CC[C@]43C)C12 (stereo partly shown) [Compound 3]	3.97	5.08	84.76	–	–	–	–
C=C(C)[C@@H]1CC[C@]2(COC(=O)c3cn(CCCOC4=C(Cl)C(=O)c5ccccc5C4=O)nn3)CC[C@]3(C)C(CCC4[C@@]5(C)CCC(=O)C(C)(C)C5CC[C@]43C)C12 (stereo partly shown) [Compound 14]	3.84	4.93	87.76	–	–	–	–
C=C(C)[C@@H]1CC[C@]2(COC(=O)c3cn(CCCOC4=C(Cl)C(=O)c5ccc(C)nc5C4=O)nn3)CC[C@]3(C)C(CCC4[C@@]5(C)CC[C@H](O)C(C)(C)C5CC[C@]43C)C12 (stereo partly shown) [Compound 9]	3.65	–	82.43	4.72	–	–	–
C=C(C)[C@@H]1CC[C@]2(COC(=O)c3cn(CCCOC4=C(Cl)C(=O)c5cccnc5C4=O)nn3)CC[C@]3(C)C(CCC4[C@@]5(C)CCC(=O)C(C)(C)C5CC[C@]43C)C12 (stereo partly shown) [Compound 2]	3.64	–	83.14	4.71	–	–	–
CC(=O)c1ccc(Br)cc1 [4-Bromoacetophenone, 4-bromoacetophenone]	–	–	–	–	–	–	1.89
CC(=O)Nc1ccccc1 [Acetanilide, acetanilide, reference compound]	0.55	–	–	1.19	–	–	–
C=C(C)[C@@H]1CC[C@]2(COC(=O)c3cn(CCCOC4=C(Cl)C(=O)c5ccncc5C4=O)nn3)CC[C@]3(C)C(CCC4[C@@]5(C)CC[C@H](OC(=O)CC)C(C)(C)C5CC[C@]43C)C12 (stereo partly shown) [Compound 8]	4.24	5.39	88.21	–	–	–	–
C=C(C)[C@@H]1CC[C@]2(COC(=O)c3cn(CCCOC4=C(Cl)C(=O)c5ccc(C)nc5C4=O)nn3)CC[C@]3(C)C(CCC4[C@@]5(C)CCC(=O)C(C)(C)C5CC[C@]43C)C12 (stereo partly shown) [Compound 10]	3.77	–	83.85	–	–	–	–
c1ccc(CCc2ccccc2)cc1 [Dibenzyl, dibenzyl]	–	–	–	–	–	–	3.65
C=C(C)[C@@H]1CC[C@]2(COC(=O)c3cn(CCCO)nn3)CC[C@]3(C)C(CCC4[C@@]5(C)CC[C@H](O)C(C)(C)C5CC[C@]43C)C12 (stereo partly shown) [Compound 17]	4.40	–	82.62	5.57	–	–	–
C=C(C)[C@@H]1CC[C@]2(COC(=O)c3cn(CCCOC4=C(Cl)C(=O)c5ccncc5C4=O)nn3)CC[C@]3(C)C(CCC4[C@@]5(C)CCC(=O)C(C)(C)C5CC[C@]43C)C12 (stereo partly shown) [Compound 6]	3.59	–	82.83	–	–	–	–
C=C(C)[C@@H]1CC[C@]2(COC(=O)c3cn(CCCOC4=C(Cl)C(=O)c5ccncc5C4=O)nn3)CC[C@]3(C)C(CCC4[C@@]5(C)CC[C@H](OC(C)=O)C(C)(C)C5CC[C@]43C)C12 (stereo partly shown) [Compound 7]	4.07	–	83.48	5.2	–	–	–
C=C(C)[C@@H]1CC[C@]2(COC(=O)c3cn(CCCOC4=C(Cl)C(=O)c5ccccc5C4=O)nn3)CC[C@]3(C)C(CCC4[C@@]5(C)CC[C@H](OC(C)=O)C(C)(C)C5CC[C@]43C)C12 (stereo partly shown) [Compound 15]	4.21	5.35	85.11	–	–	–	–

Source: PMC8224687, “Lipophilicity, Pharmacokinetic Properties, and Molecular Docking Study on SARS-CoV-2 Target for Betulin Triazole Derivatives with Attached 1,4-Quinone” (Pharmaceutics, 2021)
